These results are taken from patent US11913884B2, “Visible light-activated dyes and methods of use thereof” (William Marsh Rice University, priority 2019, dated 2024).

Series [1] in a line: UV-vis absorption and fluorescence spectra of thio-caged and uncaged fluorophores. Type of series: physicochemical. The following applies: DMSO (50 μM). As to the method:
Encouraged by the excellent photoactivation properties of SNile Red, Lawesson's reagent was employed to introduce thiocarbonyl moieties into several different fluorophores, such as phthalimide (PI), coumarin (Cou) and acridone (ACD), obtaining yields ranging from 20-80% (FIG. 1). Next, characterization of the spectroscopic and photochemical properties of these thiocaged fluorophores and their oxidized products using UV-vis and fluorescence spectroscopies was performed (Table 1). […] Double thiocarbonyl substitution on 4-dimethylaminophthalimide (4-DMAP, FIG. 1) produced an even larger bathochromic shift of 166 nm. […] It was hypothesized that the red-shift and enhanced absorption seen with thiocarbonyl compounds were due to the reduced energy gap between the HOMO-LUMO in these fluorophores. This is consistent with the computational results discussed below. […] To assess the efficiency of photoactivation for the various thio-caged fluorophores, UV-vis and fluorescence spectra were recorded after different irradiation times (FIGS. 4-8).
The ^1H NMR spectroscopic measurements were carried out using a Bruker-600 NMR at 600 MHz with tetramethysilane (TMS) as internal reference. Electrospray ionization (ESI) mass spectra were performed on a Bruker MicroToF ESI LC-MS System in positive-ion mode. The steady-state absorption spectra were obtained with a ThermoFisher Evolution 220 UV-Vis spectrophotometer in 1 cm path length quartz cells. Fluorescence spectra were recorded using spectrophotometer (SPEX FluoroLog-3). Quantum yield in DMSO was measured relative to the fluorescence of Rhodamine B (Φ=0.65) in ethanol or quinine sulfate (Φ=0.55) in 0.5 M·L^−1 H2SO4. FT-IR spectrum was taken on a PerkinElmer Spectrum 100 FT-IR Spectrometers. Confocal fluorescent images of living cells were performed using Nikon A1R-si Laser Scanning Confocal Microscope (Japan), equipped with lasers of 405/488/561/638 nm. STORM images were performed on a NSTORM (Nikon, Japan), featuring a CFI Apo TIRF 100× oil objective (NA 1.49) on an inverted Nikon Ti Eclipse microscope with a quad cube filter (Chroma, zt405/488/561/640 m-TRF), piezo stage, and Perfect Focus System (Nikon) for Z-stability. Light source are hand-held UV lamp, BlueView Transilluminator (470 nm centred, Vernier), Prior Lumen200 with 615/30 filter and 850 LED (Mouser Electronics).

For series [2], the system named is 3T3-L1 cells. As to the kind of experiment: CCK-8 assay (cytotoxicity). The format is cell-based. The conditions noted are these: 4 μM, 24 hours, Cell Counting Kit-8. The method, then:
Before testing the utility of thio-caged fluorophores for investigating biological systems, the cytotoxicity of SNile Red in adipocytes was evaluated using Cell Counting Kit-8. At a concentration of 4 μM SNile Red, 90% of 3T3-L1 cells remained viable even after 24 hours (FIG. 10). Thio-caged dyes were then used to obtain subcellular structural data via fluorescence imaging of adipocytes. Nile Red and BODIPY are the fluorescent dyes most commonly used for lipid imaging (Corsaro and Pistara, 1998, Spiller et al., 1998, Tang et al., 2013). Confocal laser scanning microscopy (CLSM) was used to determine the specificity of SNile Red localization in adipocytes differentiated from 3T3-L1 cells. For colocalization studies, adipocytes were stained with 2 μM SNile Red and 100 nM BODIPY 493/503 for 10 mins.
3T3-L1 cells were seeded in flat-bottomed 96-well plates, 1×10^4 cells per well, with 200 μL complete culture media for 24 h. […] After 2 hours, the absorbance at 450 nm was read by 96-well plates reader. The viability of […] cells was calculated by the following equation: CV=(As−Ab)/(Ac−Ab)×100%
CV stands for the viability of cells, As, Ac and Ab stand for the absorbance of cells containing SNile Red cell control (0 μM SNile Red) and blank control (wells containing neither cells nor SNile Red).

The subject of series [3] is differentiated 3T3-L1 adipocytes. Kind of series: Photoactivation and photobleaching in living adipocytes (CLSM). The format is cell-based. The text has this: Super-resolution imaging based on sequential imaging of a specific region of labeled tissue or cell culture relies on the ability to modulate the fluorescence of fluorophores between dark and bright states (Bates et al., 2007, Sengupta et al., 2014). […] Furthermore, the photoactivation of SNile Red can be achieved using visible light, affording lower phototoxicity and better tissue penetration than use of UV light. […] A 488 nm laser was utilized to activate SNile Red, while a 561 nm laser was used for photobleaching. […] Following irradiation with the 488-nm laser for 80 s, a five-fold increase of fluorescence intensity was detected. Subsequently, photobleaching was performed in the same cells using the 561-nm laser. As shown in FIGS. 13B & 13D, the fluorescence intensity decayed to 10% of its maximum within 360 s continuous scanning. This photoswitching flexibility holds promise for SNile Red utilization in further photoactivatable localization microscopy (PALM) studies. Next, the utility of SNile Red for performing super-resolution imaging of lipid droplets was explored. […] Compared to the conventional widefield fluorescence image (FIG. 13B) and Differential interference contrast (DIC) image (FIGS. 13A-B), the PALM reconstruction outlines a pair of lipid droplets with a resolution beyond the optical diffraction limit (FIGS. 13B &13C). […]

In turn, `CCN(CC)c1ccc2nc3c4ccccc4c(=S)cc-3oc2c1` [SNile Red] had a λem in series [1] of 616 nm. Further, the cells remaining viable in series [2] is given as 90%. Also, in series [3] (561-nm laser, within 360 s continuous scanning), the “fluorescence intensity after photobleaching, of its maximum” value was found to be 10%. Moreover, in series [3] (irradiation with 488-nm laser for 80 s), the “increase of fluorescence intensity in cells” value is recorded as “five-fold”.
